SMILES strings stand for the structures.

This assay relates to NFkB activity. Kind of assay: Glucocorticoid mediated transrepression of NFkB activity (A549 cells, ELAM promoter alkaline phosphatase reporter, TNFα). As to conditions: Homo sapiens, A549, 16 h, Human A549 lung epithelial cells, 3 ng/ml human recombinant TNFα, read-out: pIC50, transrepression of NFkB activity (converted). Format: cell-based. An excerpt: Human A549 lung epithelial cells were engineered to contain a secreted placental alkaline phosphatase gene under the control of the distal region of the NFkB dependent ELAM promoter as previously described in Ray, K. P., Farrow, S., Daly, M., Talabot, F. and Searle, N. “Induction of the E-selectin promoter by interleukin 1 and tumour necrosis factor alpha, and inhibition by glucocorticoids” Biochemical Journal (1997) 328: 707-15.
Compounds were solvated and diluted in DMSO, and transferred directly into assay plates such that the final concentration of DMSO was 0.7%. Following the addition of cells (40K per well), plates were incubated for 1 hr prior to the addition of 3 ng/ml human recombinant TNFα. Following continued incubation for 16 hr, alkaline phosphatase activity was determined by measuring the change in optical density at 405 nm with time following the addition of 0.7 volumes of assay buffer (1 mg/ml p-nitrophenylphosphate dissolved in 1M diethanolamine, 0.28M NaCl, 0.5 mM MgCl2). Dose response curves were constructed from which EC50 values were estimated.

For `COc1ccc(F)cc1C(C)(C)CC(O)(CNc1nc(C)nc2c1cnn2-c1ccsc1)C(F)(F)F` (stereo not shown) [Example 19, 1,1,1-Trifluoro-4-[5-fluoro-2-(methyloxy)phenyl]-4-methyl-2-({[6-methyl-1-(3-thienyl)-1H-pyrazolo[3,4-d]pyrimidin-4-yl]amino}methyl)-2-pentanol], the IC50 was less than 100 nM.
Consider `COc1ccc(F)cc1C(C)(C)CC(O)(CNc1nc(C)nc2c1cnn2-c1ccc(F)nc1)C(F)(F)F` (stereo not shown) [Example 20, 1,1,1-Trifluoro-4-[5-fluoro-2-(methyloxy)phenyl]-2-({[1-(6-fluoro-3-pyridinyl)-6-methyl-1H-pyrazolo[3,4-d]pyrimidin-4-yl]amino}methyl)-4-methyl-2-pentanol], for which the IC50 was less than 100 nM.
With `COc1ccc(F)cc1C(C)(C)CC(O)(CNc1nc(C)nc2c1cnn2-c1ccc(C#N)cc1)C(F)(F)F` (stereo not shown) [Example 21, 4-(4-{[4-[5-Fluoro-2-(methyloxy)phenyl]-2-hydroxy-4-methyl-2-(trifluoromethyl)pentyl]amino}-6-methyl-1H-pyrazolo[3,4-d]pyrimidin-1-yl)benzonitrile] the figure was less than 100 nM; with `CCOC(=O)c1cccc(-n2ncc3c(NCC(O)(CC(C)(C)c4cc(F)ccc4OC)C(F)(F)F)nc(C)nc32)c1` (stereo not shown) [Example 22, Ethyl 3-(4-{[4-[5-fluoro-2-(methyloxy)phenyl]-2-hydroxy-4-methyl-2-(trifluoromethyl)pentyl]amino}-6-methyl-1H-pyrazolo[3,4-d]pyrimidin-1-yl)benzoate], less than 100 nM; with `COC(=O)c1cccc(-n2ncc3c(NCC(O)(CC(C)(C)c4cc(F)ccc4OC)C(F)(F)F)nc(C)nc32)c1` (stereo not shown) [Example 23, Methyl 3-(4-{[4-[5-fluoro-2-(methyloxy)phenyl]-2-hydroxy-4-methyl-2-(trifluoromethyl)pentyl]amino}-6-methyl-1H-pyrazolo[3,4-d]pyrimidin-1-yl)benzoate], less than 100 nM.
For the compound `CCc1nc(NCC(O)(CC(C)(C)c2cc(F)ccc2OC)C(F)(F)F)c2cnn(-c3ccc(F)cc3)c2n1` (stereo not shown) [Example 24, 2-({[6-Ethyl-1-(4-fluorophenyl)-1H-pyrazolo[3,4-d]pyrimidin-4-yl]amino}methyl)-1,1,1-trifluoro-4-[5-fluoro-2-(methyloxy)phenyl]-4-methyl-2-pentanol], the IC50 was less than 100 nM.
With `CCc1nc(NCC(O)(CC(C)(C)c2cc(F)ccc2OC)C(F)(F)F)c2cnn(-c3ccccc3)c2n1` (stereo not shown) [Example 26, 2-{[(6-Ethyl-1-phenyl-1H-pyrazolo[3,4-d]pyrimidin-4-yl)amino]methyl}-1,1,1-trifluoro-4-[5-fluoro-2-(methyloxy)phenyl]-4-methyl-2-pentanol] the figure was less than 100 nM; with `COc1ccc(F)cc1C(C)(C)CC(O)(CNc1nc(C)nc2c1cnn2-c1cccc(C#N)c1)C(F)(F)F` (stereo not shown) [Example 27, 3-(4-{[4-[5-Fluoro-2-(methyloxy)phenyl]-2-hydroxy-4-methyl-2-(trifluoromethyl)pentyl]amino}-6-methyl-1H-pyrazolo[3,4-d]pyrimidin-1-yl)benzonitrile], less than 100 nM; with `CCc1nc(NCC(O)(CC(C)(C)c2cccc3c2OCC3)C(F)(F)F)c2cnn(-c3cccc(C#N)c3)c2n1` (stereo not shown) [Example 29, 3-(4-{[4-(2,3-Dihydro-1-benzofuran-7-yl)-2-hydroxy-4-methyl-2-(trifluoromethyl)pentyl]amino}-6-ethyl-1H-pyrazolo[3,4-d]pyrimidin-1-yl)benzonitrile], less than 100 nM.
The figure for `CCc1nc(NCC(O)(CC(C)(C)c2cccc3c2OCC3)C(F)(F)F)c2cnn(-c3cccc(C(=O)OC)c3)c2n1` (stereo not shown) [Example 30, Methyl 3-(4-{[4-(2,3-dihydro-1-benzofuran-7-yl)-2-hydroxy-4-methyl-2-(trifluoromethyl)pentyl]amino}-6-ethyl-1H-pyrazolo[3,4-d]pyrimidin-1-yl)benzoate] is less than 100 nM.

For the origin of these results see patent US20080292561A1, “Pyrazolo-Pyrimidine Derivatives as Anti-Inflammatory Agents” (Glaxo Group Limited, priority 2005, published 2008).
